In patent publication US8372443B2, “Methods and compositions for the treatment and prevention of citrus greening disease” (priority 2008, dated 2013):

What was measured:
D. citri [1] = experiment: 4-choice olfactometer behavioral bioassay; type: in vivo, Diaphorina citri; settings: for t (percentages of repelled versus attracted D. citri, student's t-test): laboratory air, 1.5 h
Procedure: Adult D. citri used for the behavioral bioassays were drawn from a continuously reared culture at the University of Florida Citrus Research and Education Center (Lake Alfred, USA) and established in 2000 from field populations in Polk Co., FL, USA (28.0′N, 81.9′W) prior to the discovery of citrus greening disease in FL. This culture is maintained on sour orange (Citrus aurantium L.) and ‘Hamlin’ orange [C. sinensis (L.)] seedlings at 27±1° C., 63±2% RH, and L14:D10 photoperiod. Freshly emerged unsexed adult psyllids were first placed on citrus seedlings in Plexiglass cages for up to 7 d for sexual maturation prior to use in experiments.
Husbandry methods for the ‘white’ guava and ‘Hamlin’ citrus plants used in these investigations have been described previously (Rouseff et al., 2008). ‘Hamlin’ citrus was selected for analysis because it is one of the most highly cultivated citrus varieties in Florida. Half of the samples were gently crushed (using a clean glass rod) to simulate plant damage and the remaining half were not crushed. All samples ([…] leaf flush/sample) were wrapped in Kim wipes (Kimberly-Clark®, Ontario, Canada) and placed in 2.5 cm×12.5 cm extending glass tubes of a 4-choice olfactometer [Analytical Research Systems, ARS (Gainesville, Fla.)], for behavioral investigations described below.
Behavioral responses of D. citri to citrus volatiles with or without guava or DMDS volatiles were quantified using a 4-choice olfactometer (Analytical Research Systems, Inc. (ARS), Gainesville, Fla., USA) based on the design of Pettersson (1970), Vet et al. (1983) and Kalule & Wright (2004). The olfactometer consists of a 5 cm×30 cm×30 cm stage on four 2.5 cm×15 cm legs with extending orifices on four sides of the stage. Charcoal-purified and humidified air was drawn through these arms via a vacuum pump creating four potential odor fields. Air pulled through the olfactometer was evacuated through a central orifice on the floor of the stage. During each experimental run, two of the four orifices on the sides of the stage were designated for odor stimuli treatments and the two others were left as blank. […] The effect of repellent chemicals was measured by adding guava leaves or a formulation of synthetic DMDS to citrus flush in two arms of the olfactometer as described below. […]
The behavioral response of adult D. citri to clean laboratory air was first investigated to 4 blank arms of the olfactometer as a negative control to ensure no positional bias. Thereafter, D. citri response was measured to citrus leaf volatiles with and without volatiles from guava leaves or synthetic DMDS. […]

D. citri [2] = experiment: Y-tube olfactometer test; type: in vivo, Diaphorina citri
Procedure: In order to confirm the repellent effect of synthetic DMDS against D. citri, an additional study using a Y-tube olfactometer (ARS, Gainesville, Fla., USA) was conducted. The Y-tube consisted of a central stem (13.5 cm long, 2.4 cm o.d.) with two lateral arms (5.75 cm long, 2.4 cm o.d.). The lateral arms were connected to extending glass tubes (14.5 cm long, 1.9 cm o.d.) with inlayed sieves (5.25 cm away from connection) to prevent insect escape and serve as an end point of the lateral arms. Charcoal-filtered laboratory air was passed from an air pump, into each of the extending arms of the olfactometer at a rate 100 mL/min. […]
Adult psyllids that oriented to any of the four arms of the olfactometer were categorized as attracted and those that remained in the olfactometer's central orifice (release point) until the 1.5 h experimental period elapsed as repelled. […] Subsequently, data obtained for D. citri orientation to the four arms (two volatile sources and two laboratory air) was analyzed for each treatment using one-way step-wise ANOVA followed by Tukey's HSD test (P<0.05, SAS Institute Inc., 2003). The data obtained from the Y-tube olfactometer bioassays was analyzed using Chi-square (χ^2) analyses (Parker, 1979) to compare between the numbers of attracted versus repelled D. citri (P<0.05).

[3] = test system: Mediterranean fruit fly, Ceratitis capitata; settings: literature reference 23; cited from earlier work

Structure (SMILES)	repellence of adult D. citri at the selected dosage (preliminary investigation) (D. citri [1]; 100 μL of a 4.3 μg/μL (w/v) solution in mineral oil on cotton wick, compared with lower dosages on a log scale (data not shown))	t (percentages of repelled versus attracted D. citri, student's t-test) (D. citri [1]; Experiment 2: arms laboratory air, intact citrus, DMDS, 100 μL of 4.3 μg/μL DMDS in mineral oil)	t (percentages of repelled versus attracted D. citri, student's t-test) (D. citri [1]; Experiment 3: arms laboratory air, crushed citrus, DMDS)	t (percentages of repelled versus attracted D. citri, student's t-test) (D. citri [1]; Experiment 4: arms laboratory air, mineral oil, DMDS (DMDS only))	effect on D. citri's response to citrus flush volatiles (D. citri [2]; Y-tube first experiment: 100 μL DMDS solution in mineral oil plus ~3.5 g citrus flush in both arms versus citrus alone, χ2=2.57, P=0.109)	percentage of D. citri choosing the arm releasing clean air versus DMDS (D. citri [2]; Y-tube second experiment: DMDS in mineral oil in one arm, clean laboratory air in the other, 300 s, χ2=5.0, P=0.025) [%]	reported behavioural effect on Mediterranean fruit fly [3]
CSSC [DMDS, dimethyl disulfide]	optimally repel	3.05	7.23	6.25	significantly inhibited	~75	
CC1=CC[C@H]2[C@H]3[C@@H]1[C@]2(C)CC[C@H]3C(C)C [α-Copaene]							attractant
